Test results as given in US20140004062A1, “COMPOSITION INCLUDING 3-BROMO-4,5-DIHYDROXYBENZALDEHYDE COMPOUND AS EFFECTIVE COMPONENT FOR PROTECTING AND TREATING SKIN CELL AGANIST ULTRAVIOLET” (Jeju National University Industry-Academic Cooperation …, priority 2012, published 2014).

Key:
[1] = system: hematopoietic necrosis virus; conditions: cited from earlier work
HaCaT keratinocytes [2] = assay: Intracellular ROS induced by UVB, DCF-DA method; type: cell-based, human; conditions: UVB 30 mJ/cm^2, 24 h
Experimental: (§1) The DCF-DA method was used to detect intracellular ROS levels in HaCaT keratinocytes generated by either H2O2 or UVB radiation. For the detection of ROS in H2O2-treated cells, cells were seeded at a density of 1.5×10^5 cells/well. Sixteen hours after plating, cells were treated with BDB at a concentration of 10, 20, 30 μM and 2 mM NAC. After 30 min, H2O2 (1 mM) was added to the plate. Cells were incubated for an additional 30 min at 37° C., and DCF-DA solution (25 μM) was then added. Ten minutes after the addition of DCF-DA, the fluorescence of 2′,7′-dichlorofluorescein (DCF) was detected and quantified using a PerkinElmer LS-5B spectrofluorometer (PerkinElmer, Waltham, Mass., USA). For the detection of ROS in UVB-exposed cells, cells were treated with BDB as above. After one hour, cells were exposed to UVB radiation at a dose of 30 mJ/cm^2. […] Cells were incubated for an additional 24 h at 37° C., DCF-DA solution (25 μM) was added and detected as above.

HaCaT cells [3] = assay: Protein carbonyl formation ELISA; type: cell-based, human; conditions: UVB-irradiated cells treated with BDB
Experimental: The amount of carbonyl formation in protein was determined using an Oxiselect™ protein carbonyl ELISA kit purchased from Cell Biolabs (San Diego, Calif., USA) according to the manufacturer's instructions.

HaCaT cells [4] = assay: Sub-G1 hypodiploid cells, flow cytometry; type: cell-based, human; conditions: BDB 30 μM, UVB 1 h later, 24 h; UVB alone 17%, no UVB 1%
Experimental: Flow cytometry was performed in order to determine the apoptotic sub-G1 hypodiploid cells. Cells were treated with BDB at a concentration of 30 μM and exposed to UVB radiation 1 h later. Cells were incubated for an additional 24 h at 37° C. Cells were harvested, and fixed in 1 mL of 70% ethanol for 30 min at 4° C. Cells were washed twice with PBS, and then incubated for 30 min in the dark at 37° C. in 1 mL of PBS containing 100 μg propidium iodide and 100 μg RNase A. Flow cytometric analysis was performed using a FACS Calibur flow cytometer (Becton Dickinson, Mountain View, Calif., USA). Sub-G1 hypodiploid cells were assessed based on the histograms generated using the computer programs, Cell Quest and Mod-Fit.

[5] = Detection of hydroxyl radical, Fenton reaction, ESR spectrometry; type: physicochemical; conditions: BDB 30 μM; signal without BDB 3851
Experimental: The hydroxyl radical was generated by the Fenton reaction (H2O2+FeSO4) and then reacted with DMPO. The resultant DMPO/.OH adducts were detected using an ESR spectrometer. The ESR spectrum was recorded 2.5 min after a phosphate buffer solution (pH 7.4) was mixed with 0.2 mL each of 0.3 M DMPO, 10 mM FeSO4, 10 mM H2O2, and BDB (30 μM). The ESR spectrometer parameters were set at a magnetic field of 336 mT, power of 1.00 mW, frequency of 9.4380 GHz, modulation amplitude of 0.2 mT, gain of 200, scan time of 0.5 min, scan width of 10 mT, time constant of 0.03 sec, and temperature of 25° C.

HaCaT cells [6] = assay: MTT assay, viability of UVB-exposed HaCaT cells; type: cell-based; conditions: Homo sapiens, light or radiation study, UVB 1 h later, 24 h, untreated UVB cells 65%, read-out: viability of the cell exposed to UVB
Experimental: (§2) Human keratinocytes (HaCaT cells) were obtained from the Amore Pacific Company (Gyeonggi-do, Republic of Korea). Cells were maintained at 37° C. in an incubator with a humidified atmosphere of 5% CO2. Cells were cultured in Dulbecco's modified Eagle's medium containing 10% heat-inactivated fetal calf serum, streptomycin (100 μg/mL) and penicillin (100 unit/mL).
(§3) The effect of BDB on the viability of HaCaT cells was assessed as follows. Cells were seeded in a 96-well plate at a density of 1×10^5 cells/mL. Sixteen hours after plating, BDB was added at a concentration of at 10, 20, 30, 40, and 50 μM. To evaluate the ability of BDB to protect keratinocytes against UVB-exposure, BDB was added at a concentration of 10, and 30 μM, and cells were exposed to UVB radiation one hour later and incubated at 37° C. for 24 h. Fifty microliter of MTT stock solution (2 mg/mL) was added to each well to yield a total reaction volume of 200 μl. After incubating the cells for 4 h, the plate was centrifuged at 800×g for 5 min, and the supernatants were aspirated. The formazan crystals in each well were dissolved in dimethylsulfoxide (150 μl), and the absorbance at 540 nm was read on a scanning multi-well spectrophotometer.

[7] = DPPH radical removal ability; type: physicochemical; conditions: 3 h
Experimental: BDB at a concentration of 10, 20, 30 μM and 2 mM NAC were added to a 1×10^−4 M solution of DPPH in methanol. The resulting reaction mixture was shaken vigorously. After 3 h, the amount of unreacted DPPH was measured at 520 nm using a spectrophotometer.

HaCaT cells [8] = assay: MTT assay, viability of HaCaT cells treated with BDB; type: cell-based, human; conditions: up to the concentration of 30 μM; tested at 10-50 μM
Experimental: as §2, §3

[9] = UVB absorption analysis, ultraviolet/visible spectrophotometer; type: physicochemical
Experimental: To study the UVB absorption spectra of BDB, which was diluted in DMSO at a ratio 1:500 (v/v), it was scanned by UV at 200-500 nm using Biochrom Libra S22 ultraviolet/visible spectrophotometer.

HaCaT keratinocytes [10] = assay: Intracellular ROS induced by H2O2, DCF-DA method; type: cell-based, human; conditions: H2O2 1 mM
Experimental: as §1

[11] = system: infectious pancreatic necrosis virus; conditions: cited from earlier work
HaCaT cells [12] = assay: Cytoplasmic histone-associated DNA fragmentation kit; type: cell-based, human; conditions: UVB-irradiated cells treated with BDB
Experimental: Cellular DNA fragmentation was assessed by analyzing the extent of cytoplasmic histone-associated DNA fragmentation using a kit from Roche Diagnostics (Portland, Oreg., USA) according to the manufacturer's instructions. A cytoplasmic histone-associated DNA fragmentation was increased in UVB-irradiated cells as compared with control cells. The level of DNA fragmentation was decreased in UVB-irradiated cells that were treated with BDB (see FIG. 4c).

HaCaT cells [13] = assay: Comet assay, oxidative DNA damage; type: cell-based, human; conditions: UVB-exposed cells treated with BDB; UVB alone 37%
Experimental: The degree of oxidative DNA damage was determined in a comet assay. Cell suspension was mixed with 75 μL of 0.5% low melting agarose (LMA) at 39° C. and the mixture was spread on a fully frosted microscopic slide pre-coated with 200 μL of 1% normal melting agarose (NMA). After solidification of the agarose, the slide was covered with another 75 μl of 0.5% LMA and then immersed in a lysis solution (2.5 M NaCl, 100 mM Na-EDTA, 10 mM Tris, 1% Trion X-100 and 10% DMSO, pH 10) for 1 h at 4° C. The slides were then placed in a gel-electrophoresis apparatus containing 300 mM NaOH and 10 mM Na-EDTA (pH 13) for 40 min to allow for DNA unwinding and the expression of the alkali-labile damage. An electrical field was then applied (300 mA, 25 V) for 20 min at 4° C. to draw the negatively charged DNA towards the anode. The slides were washed three times for 5 min at 4° C. in a neutralizing buffer (0.4 M Tris, pH 7.5), stained with 75 μL of propidium iodide (20 μg/mL) and observed using a fluorescence microscope and an image analyzer (Kinetic Imaging, Komet 5.5, UK). The percentage of total fluorescence in the DNA tails and the tail length of 50 cells per slide were recorded.

HaCaT cells [14] = assay: Lipid peroxidation, 8-isoprostane enzyme immunoassay; type: cell-based, human; conditions: UVB-exposed cells treated with BDB, 24 h; UVB alone 3.1 pg/mg
Experimental: (§4) A cell was exposed to UVB, and then after 24 hours, effects of BDB in inhibiting the cell membrane lipid peroxidation, a protein modification, and a cell DNA damage of UVB-irradiated cell was observed. Lipid peroxidation was assayed by the determination of 8-isoprostane levels in the culture medium. A commercial enzyme immunoassay (Cayman Chemical, Ann Arbor, Mich., USA) was employed according to the manufacturer's instructions. Lipid peroxidation was also estimated using a fluorescent probe, DPPP. Cells were incubated with 5 μM DPPP for 15 min in the dark and then exposed to UVB. DPPP fluorescence image was captured using a Zeiss Axiovert 200 inverted microscope at an excitation wavelength of 351 nm and an emission wavelength of 380 nm and quantified.

HaCaT cells [15] = assay: Lipid peroxidation, DPPP fluorescent probe; type: cell-based, human; conditions: UVB-irradiated cells treated with BDB
Experimental: as §4

[16] = Detection of superoxide anion, xanthine/xanthine oxidase system, ESR spectrometry; type: physicochemical; conditions: BDB 30 μM; signal without BDB 2765
Experimental: The superoxide anion was produced via the xanthine/xanthine oxidase system and then reacted with a nitrone spin trap, DMPO. The DMPO/.OOH adducts were detected using a JES-FA electron spin resonance (ESR) spectrometer (JEOL, Tokyo, Japan). Briefly, ESR signaling was recorded 5 min after 20 μl of xanthine oxidase (0.25 U/mL) was mixed with 20 μl each of xanthine (5 mM), DMPO (1.5 M) and BDB (30 μM). The ESR spectrometer parameters were set at a magnetic field of 336 mT, power of 1.00 mW, frequency of 9.4380 GHz, modulation amplitude of 0.2 mT, gain of 500, scan time of 0.5 min, scan width of 10 mT, time constant of 0.03 sec, and temperature of 25° C.

HaCaT cells [17] = assay: Nuclear staining with Hoechst 33342, apoptotic bodies; type: cell-based, human; conditions: BDB 30 μM, UVB 1 h later, 24 h; UVB alone 16
Experimental: Cells were treated with BDB at a concentration of 30 μM and exposed to UVB radiation 1 h later. Cells were incubated for an additional 24 h at 37° C. Hoechst 33342 (1.5 μL of a 10 mg/mL stock), a DNA-specific fluorescent dye, was added to each well, and the cells were incubated for 10 min at 37° C. The stained cells were visualized under a fluorescence microscope equipped with a CoolSNAP-Pro color digital camera. The degree of nuclear condensation was evaluated, and the apoptotic cells were quantified.

[18] = UV/visible scan 200 nm to 500 nm

With `O=Cc1cc(O)c(O)c(Br)c1` [BDB, 3-Bromo-4,5-dihydroxybenzaldehyde] as the molecule, how does the antiviral effect [1] read?
Its antiviral effect is “antiviral effect”.

And the “intracellular ROS induced by UVB removed” value (HaCaT keratinocytes [2]; 10 μM)?
Its value is 17%.

What about the “intracellular ROS induced by UVB removed” value (HaCaT keratinocytes [2]; 20 μM) of the same molecule?
The value was 22%.

What about the “intracellular ROS induced by UVB removed” value (HaCaT keratinocytes [2]; 30 μM) of the same molecule?
Its value is 23%.

What about the “carbonyl formation induced by UVB (protein carbonyl level)” value (HaCaT cells [3]) of the same molecule?
The value was “inhibited”.

What about the “apoptotic sub-G1 DNA” value (HaCaT cells [4]) of the same molecule?
Its value is 8%.

And the “hydroxyl radical signal (ESR, DMPO/.OH adducts)” value [5]?
The value was 3002.

And the viability at 10 µM (HaCaT cells [6]; BDB 10 μM)?
The viability at 10 µM was 73%.

What about the viability at 20 µM (HaCaT cells [6]; BDB 20 μM) of the same molecule?
The viability at 20 µM was 73%.

And the viability at 30 µM (HaCaT cells [6]; BDB 30 μM)?
The viability at 30 µM was 77%.

And the DPPH radical scavenged ([7]; 10 μM, 1×10^−4 M DPPH in methanol)?
The DPPH radical scavenged was 6%.

What about the DPPH radical scavenged ([7]; 20 μM, 1×10^−4 M DPPH in methanol) of the same molecule?
The DPPH radical scavenged was 21%.

And the DPPH radical scavenged ([7]; 30 μM, 1×10^−4 M DPPH in methanol)?
Its DPPH radical scavenged is 25%.

What about the “toxicity on human HaCaT keratinocyte (cell viability, MTT)” value (HaCaT cells [8]) of the same molecule?
The value was “does not exhibit toxicity”.

And the “absorption peak 1 position” value [9, 18]?
The value was 288 nm.

And the “absorption peak 2 position” value [9, 18]?
Its value is 357 nm.

What about the UVB absorption ability ([9]; diluted in DMSO 1:500 (v/v), scanned at 200-500 nm) of the same molecule?
Its UVB absorption ability is “exhibited the absorption ability at 280 to 320 nm”.

What about the “intracellular ROS induced by H2O2 removed” value (HaCaT keratinocytes [10]; 10 μM) of the same molecule?
Its value is 64%.

What about the “intracellular ROS induced by H2O2 removed” value (HaCaT keratinocytes [10]; 20 μM) of the same molecule?
Its value is 67%.

And the “intracellular ROS induced by H2O2 removed” value (HaCaT keratinocytes [10]; 30 μM)?
Its value is 70%.

And the antiviral effect [11]?
The antiviral effect was “antiviral effect”.

What about the “level of cytoplasmic histone-associated DNA fragmentation” value (HaCaT cells [12]) of the same molecule?
The value was “decreased”.

And the “ratio of DNA in the tail (comet assay)” value (HaCaT cells [13])?
The value was 18%.

And the “8-isoprostane level (lipid peroxidation)” value (HaCaT cells [14])?
Its value is 1.9 pg/mg.

And the “DPPP fluorescence (lipid peroxidation)” value (HaCaT cells [15])?
The value was “exhibited the fluorescence in the more small range”.

And the “superoxide anion signal (ESR, DMPO/.OOH adducts)” value [16]?
Its value is 2063.

And the “Apoptotic Index (nuclear segments, Hoechst 33342)” value (HaCaT cells [17])?
Its value is 9.

What does the source list for `CC(=O)N[C@@H](CS)C(=O)O` [NAC, N-acetyl cysteine, reference compound]?
intracellular ROS induced by UVB removed (HaCaT keratinocytes [2]; 2 mM): 22%; DPPH radical scavenged ([7]; 2 mM, positive control): 89%; intracellular ROS induced by H2O2 removed (HaCaT keratinocytes [10]; 2 mM): 80%
